This is an account of results in US20110059104A1, “Apo-2L receptor agonist and CPT-11 synergism” (Genentech, Inc., priority 2000, published 2011).

Entries after “also recorded” stand apart in the source; their conditions may differ. Where a SMILES comes first, the peptide text is derived from it. The star is where a group is joined. Cbz = O=C(OCc1ccccc1)*; CH2F = FC*

Assay [1] relates to HCT116 cells. The experiment in a line: Live/Dead viability/cytotoxicity fluorescence microscopy (calcein-AM, ethidium homodimer-1). In kind it is cell-based, human. As to the method: (§1) An AlamarBlue™ assay was used to determine the cell viability. HCT116 colon cancer cells (˜10000 cells/well) were incubated overnight in 10% FBS RPMI 1640 medium in 96-well tissue culture plates. […] AlamarBlue™ was added to the wells for the last 6 hours of the 24 hours incubation time. Fluorescence was read using 96-well fluorometer plate reader with an excitation of 530 nm and emission of 590 nm (CytoFluor multi-well plate reader series 4000, PerSeptive Biosystems; Framingham, Mass.). In addition, the Molecular probes Live/Dead^R viability/cytotoxicity kit (Eugene, Oreg.) was used to evaluate the presence of live or dead cells. In these assays, Calcein-Am (4 μM) and ethidium homodimer-1 (2 μM) were added to treated cells 15 minutes before inspecting the cultures under an Axiovert 25 (Zeiss; Thornwood, N.Y.) fluorescence microscope equipped with fluorescein (calcein) and rhodamine (ethidium homodimer-1) filters.

The subject of assay [2] is p53 protein in HUVEC cells. The assay is described as follows: p53 protein western blot, HUVEC. It is filed as cell-based, human. As to conditions: normal HUVEC cells; 2 and 24 hours; hydrochloride trihydrate. The procedure: (§2) For Western blotting, cells were lysed in 20 mM Tris-HCl, pH 7.4 containing 10% glycerol, 1% Triton-x100, 150 mM NaCl and protease inhibitors (1 mM PMSF, 10 μg/ml Aprotinin, 10 μg/ml Leupeptin, Sigma). Aliquots of 50 μg of total protein per well were separated in a NuPAGE 4-12% Bis-Tris gel with NuPAGE MES SDS running buffer (Novex; San Diego, Calif.). The gels were transferred to […] pure nitrocellulose membrane (Bio-Rad) by semi-dry transfer cell (Bio-dad; Hercules, Calif.) with NuPAGE transfer buffer. The membranes were blocked with PBS containing 5% nonfat dry milk and incubated with primary antibodies against the proteins of interest followed by a horseradish […] secondary antibody (Amersham; Braunschweig, Germany). Immunoreactivo bands were visualized by the enhanced chemiluminescencesystem (Amersham; Braunschweig, Germany). The antibodies used in this study were: Anti-caspase-3 (Stratagene, #200021; La Jolla, Calif.), anti-p53 and anti-p21 (Oncogene, #0P43 and #0P64; Cambridge, Mass.), and anti-FLIP (#343002, Calbiochem, San Diego, Calif.). The antibodies were used at the concentrations recommended by the manufacturers.
In general terms: In western blotting, separated proteins are transferred to a membrane and probed.

Another assay has as its system DR5 mRNA in HCT116 cells. The experiment in a line: bDNA assay of DR5 mRNA. In kind it is cell-based, human. The procedure: The specificity of the probes was tested using RNA from in vitro transcription using recombinant DcR1, DcR2, DR4 and DR5 constructs.
In assay [3] the test system is p53 protein in HCT116 cells. The assay is described as follows: p53 protein western blot, HCT116. It is filed as cell-based, human. As to conditions: HCT116 tumor cells; 2 and 24 hours; hydrochloride trihydrate. The procedure:
as §2

The test system of another assay is DR4 mRNA in HCT116 cells. The assay is described as follows: bDNA assay of DR4 mRNA. It is filed as cell-based, human. The source says: Total RNA was isolated using the RNA stat-60™ solution (Tel-Test, Inc (Friendsweed, Tex.) according to manufacturer's instruction. The Quantigene bDNA™ signal amplification kit (Chiron diagnostics; East Walpole, Mass.) was used to evaluate mRNA levels. The sequence of GAPDH probe sets was as recommended by the manufacturer. The DR4 probe sets were lined within the region of nucleic acid residues 9 to 582. There were 5 capture probes, 16 labeling probes and 8 blocking probes. The DR5 probe sets were lined within the region of nucleic acid residues 13-591. There were 5 capture probes, 17 labeling probes and 5 blocking probes for DR5. The specificity of the probes was tested using RNA from in vitro transcription using recombinant DcR1, DcR2, DR4 and DR5 constructs. Both DR4 and DR5 probe sets were highly specific for their own RNA transcripts. The signal from each probe sets was linear with the concentrations tested. bDNA assays were performed according to manufacturer's instructions using about 2 μg of total RNA/well.

In assay [4] the test system is HCT116 colon cancer cells. The experiment in a line: AlamarBlue cell viability assay. It is filed as cell-based, human. The conditions noted are these: 24 hours; CPT-11 50 μg/ml, Apo2L/TRAIL 1 μg/ml. As to the method: as §1
(In general: Resazurin is reduced to fluorescent resorufin, in cell work by metabolically active cells.)

For assay [5], the system named is HCT116 cells. The experiment in a line: Flow cytometric cell cycle analysis, HCT116. It is filed as cell-based, human. The procedure: Cell cycle analysis was performed via FACS analysis. HCT116 and HUVEC cells were incubated and treated as described in the figure legends. After the treatments, both floating cells in the medium aid live cells in the plate were collected. Cycle TEST PLUS DNA™ reagent kit (Beckon Dickinson; San Jose, Calif.) was used to stain cells according to manufacturer's instruction. The stained cells were analyzed in a FACS sorter (Becton Dickinson). The percentage of apoptotic cells containing a sub-G1 DNA content was quantitated using the CellQuest program. The percentage of live cells in each phase of cell cycle was quantitated using the ModFit LT program.

Assay [6] relates to p21 protein in HUVEC cells. The experiment in a line: p21 protein western blot, HUVEC. It is filed as cell-based, human. As to conditions: normal HUVEC cells; 24 hours. As to the method:
as §2

The test system of assay [7] is COLO205 colon carcinoma cells. The assay is described as follows: COLO205 colon carcinoma tumor growth in athymic nude mice (Example 1).
Protocol: The colon carcinoma cell line COLO205 (available from NCI) were grown and maintained according to the supplier's methods. Briefly, COLO205 cells were cultured in high glucose DMEM/F12 (50:50) media containing 10% fetal bovine serum and 2.0 mM L-Glutamine. […] CPT-11 (Camptosar®) was obtained from Pharmacia & Upjohn.
The test system of assay [8] is p21 protein in HCT116 cells. The experiment in a line: p21 protein western blot, HCT116. In kind it is cell-based, human. As to the method:
as §2

Assay [9] has as its system HCT116 colon cancer cells. The experiment in a line: Crystal violet cell survival assay. It is filed as cell-based, human. The conditions noted are these: SN-38 0.05 microgram/ml; FIG. 15. As to the method: A crystal violet assay was also used. […] The medium was removed the following day, and the cells were incubated for 24 or 48 hours in the fresh medium containing the various agents noted above. At the end of each treatment, the medium was removed and 100 μl of 0.5% crystal violet solution was added to each well and incubated at room temperature for 10 minutes before washing with water. After the wells were dry, 100 μl of ethanol containing 0.5 N HCL was added to each well. The plates were then read at 540 nm using a 96-well plate reader (Spectra Max 340pc, Molecular Devices Corporation, Sunnyvale, Calif.).

[10] abbreviates: 24 hours of treatment, without Z-VAD.

Consider `CCc1c2c(nc3ccc(OC(=O)N4CCC(N5CCCCC5)CC4)cc13)-c1cc3c(c(=O)n1C2)COC(=O)[C@]3(O)CC.Cl.O.O.O` [CPT-11, (4S)-4,11-diethyl-4-hydroxy-9-[(4-piperidino-piperidino)carbonyloxyl]-1H-pyrano[3′,4′:6,7]indolizino [1,2-b]quinoline-3,14(4H,12H)dione hydrochloride trihydrate], for which, in the assay with HCT116 cells [1] (2 hours of treatment), the “morphological changes / cell killing” value was “did not show any morphological changes”. In addition, in the assay with HCT116 cells [1] (24 hours of treatment), the cell death entry is reported as “a few dead cells were clearly present”. For the same compound, the p53 protein level result in [2] was “strong and sustained induction of p53 expression; also recorded: increase in p53 protein levels”; in assay [3], “strong and sustained induction of p53 expression; also recorded: increase in p53 protein levels”. For the same compound, the “increase in DR5 mRNA expression compared with controls” value in the assay with DR5 mRNA in HCT116 cells (2 hours of treatment) is “not at 2 hours”. Further, the “increase in DR5 mRNA compared with controls” value with DR5 mRNA in HCT116 cells (setting [10]) came to 2.5 fold. In the assay on DR5 mRNA in HCT116 cells (time of exposure, hydrochloride trihydrate), the “induction of DR5 expression by CPT-11 in vitro” value is “can be observed after two hours exposure or incubation; also recorded: induced in vitro following exposure of cells to 50 microgram/ml CPT-11 for 6 hours”. In addition, the “increase in DR4 mRNA compared with controls” value with DR4 mRNA in HCT116 cells (2 hours of treatment) was “not at 2 hours”; with DR4 mRNA in HCT116 cells (setting [10]), 2.5 fold. The “effect on Apo2L/TRAIL-mediated apoptosis (number of live cells)” value in assay [4] was “enhanced Apo2L/TRAIL-mediated apoptosis in vitro”. Further, the “cells in Go-G1 (cell cycle arrest)” value with HCT116 cells [5] (6 hours, control 30%) came to 76%. The Go-G1 phase result in the assay on HCT116 cells [5] (24 hours) is “clear reduction in Go-G1 phase”. Moreover, the “cells in G2-M phase (arrest)” value with HCT116 cells [5] (24 hours, control 19%) was determined as 43%. The “apoptosis (sub-G1 DNA content)” value with HCT116 cells [5] (24 hours, control cells 1%) turned out to be 9%. Also, the p21 protein level entry in [6] was “large induction of p21 protein”; in assay [8] (HCT116 tumor cells, 24 hours), “large induction of p21 protein”. For the same compound, in assay [7] (9 mice per group), the “animals in which tumor growth resumed several days after the treatment period” value was 9 animals. The “effect on tumor growth” value in assay [7] (s.c. COLO205 tumors, Apo-2L 30 mg/kg/day days 0-4 and 7-11, CPT-11 80 mg/kg/day days 0, 4, 8, 34 days) is “suppressed tumor growth during the treatment period”. Also, the “time profile of changes in p21 protein levels” value in assay [8] (CPT-11 incubation) is on record as “increases as early as 4 hours of treatment”.

As for `CCc1c2c(nc3ccc(O)cc13)-c1cc3c(c(=O)n1C2)COC(=O)[C@]3(O)CC` [SN38], the “tumor cell death with SN38 instead of CPT-11 in combination and sequential treatments with Apo2L/TRAIL” value in [9] is “Increased tumor cell death”.

In the case of `CC(NC(=O)C(NC(=O)OCc1ccccc1)C(C)C)C(=O)NC(CC(=O)O)C(=O)CF` (stereo not drawn) [Z-VAD] (Cbz-Val-Ala-Asp-CH2F; configuration not given here), in the assay on DR5 mRNA in HCT116 cells (24 hours, with Z-VAD), the “increase in DR5 mRNA in the presence of Z-VAD” value was “did not block”. Moreover, in the assay on DR4 mRNA in HCT116 cells (24 hours, with Z-VAD), the “increase in DR4 mRNA in the presence of Z-VAD” value is on record as “did not block”. Moreover, in the assay on HCT116 cells [5] (HCT116), the “effect of caspase inhibitor on Apo2L/TRAIL-mediated apoptosis” value is reported as “effectively blocked Apo2L/TRAIL-mediated apoptosis”.
